# Measured values taken from ChEMBL document CHEMBL1201862, “PubChem BioAssay data set” (2004).
# Calls of active or inactive are those of the source.
# Experiments:
# [1] = biological target: T1, G-protein coupled receptor 35 (Homo sapiens, UniProt Q9HC97); experiment: SAR analysis of Antagonists of the GPR35 Receptor using an Image-Based Assay - Set 6. [Related pubchem assays (depositor defined):AID2013, AID2026]; type: functional
# [2] = biological target: T1, G-protein coupled receptor 35; experiment: SAR analysis of Agonists of the GPR35 Receptor using an Image-Based Assay - Set 4. [Related pubchem assays (depositor defined):AID2013, AID2026]; type: functional
# Cannabinoid receptor 2 [3] = biological target: T2, Cannabinoid receptor 2 (Homo sapiens, UniProt P34972); experiment: SAR analysis of antagonists of the Cannabinoid Receptor 2 using an Image-Based Assay - Set 3. [Related pubchem assays (depositor defined):AID2013, AID2026]; type: functional
# Cannabinoid receptor 2 [4] = biological target: T2, Cannabinoid receptor 2; experiment: SAR analysis of agonists of the Cannabinoid Receptor 2 using an Image-Based Assay - Set 3. [Related pubchem assays (depositor defined):AID2013, AID2026]; type: functional
# Cannabinoid receptor 1 [5] = biological target: T3, Cannabinoid receptor 1 (Homo sapiens, UniProt P21554); experiment: SAR analysis of agonists of the Cannabinoid Receptor 1 using an Image-Based Assay - Set 4. [Related pubchem assays (depositor defined):AID2013, AID2026]; type: functional
# Cannabinoid receptor 1 [6] = biological target: T3, Cannabinoid receptor 1; experiment: SAR analysis of antagonists of the Cannabinoid Receptor 1 using an Image-Based Assay - Set 4. [Related pubchem assays (depositor defined):AID2013, AID2026]; type: functional
# [7] = biological target: G-protein coupled receptor 55 (Homo sapiens, UniProt Q9Y2T6); experiment: SAR Analysis of Selective Antagonists of GPR55 using an Image-Based Assay - Set 4. [Related pubchem assays (depositor defined):AID2013, AID2026]; type: functional;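 further: antagonism of response to 5 µM lysophosphatidylinositol agonist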
# [8] = biological target: Nucleotide-binding oligomerization domain-containing protein 2 (Homo sapiens, UniProt Q9HC29); experiment: NOD2 signaling inhibitors, cell-based, luminescence, uHTS, HEK293 (AID 1566); type: functional
# HEK293 [9] = experiment: NOD1 signaling inhibitors, primary screen, cell-based, luminescence, uHTS (AID 1578); type: functional; conditions: Homo sapiens
# HEK293 [10] = experiment: cells; type: functional, cell-based; conditions: Homo sapiens
# [11] = growth suppression of beta-catenin-knockout colon cells, dose response, cell-based, HCT116, human colon tumor (AID 1045); type: functional;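 further: HCT116 colon tumor cells with beta catenin knocked out; cells exposed to compound for 60 hours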
# [12] = biological target: Neurotensin receptor type 1 (Homo sapiens, UniProt P30989); type: functional;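 further: Image-based confirmatory dose-response assay measuring agonist activity at NTR1; NTR1-expressing U2OS osteosarcoma cells imaged for beta-arrestin GFP spot formation; agonist potency where compounds increase beta-arrestin recruitment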
# INS1 = experiment: beta cell apoptosis inhibitors, cytokine rescue, dose response, luminescence, retest (AID 449756); type: functional, cell-based; conditions: Rattus norvegicus;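 further: cell death triggered by IL-1 beta plus TNF-alpha plus IFN-gamma mixture; protective hits raise ATP signal compared with cytokine alone wells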
# [13] = Luminescence Cell-Based Dose Retest to Confirm Inhibitors of Cancer Stem Cells. [Related pubchem assays (depositor defined):AID2717, AID2721]; type: functional; conditions: Homo sapiens
# HEK293 [14] = experiment: cells; type: functional, cell-based; conditions: Homo sapiens; remark: listed apart in the source
# [15] = inhibitors of intracellular T. cruzi replication, confirmation, NIH3T3 host cells, beta-gal luminescence (AID 2044); type: functional, cell-based;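 further: intracellular parasites grown in NIH/3T3 mouse fibroblasts as host cells; luminescent beta-galactosidase reporter signal from transgenic T. cruzi replicating inside host cells; inhibitors lower the luminescence signal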
# HEK293 [16] = experiment: NOD2 signaling inhibitors in MDP-stimulated cells, cell-based, uHTS, luminescence (AID 2001); type: functional; conditions: Homo sapiens
# HEK293 [17] = experiment: cells; type: functional, cell-based; conditions: Homo sapiens; remark: listed apart in the source
# [18] = growth suppression of PTEN-null colon cells, dose response, cell-based, HCT116 PTEN knockout (AID 1047); type: functional;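 further: HCT116 colon tumor cells with PTEN knocked out; cells exposed to compound for 60 hours before readout; potency for loss of cell viability measured by luminescence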
# Mucolipin-3 = biological target: T4, Mucolipin-3 (Homo sapiens, UniProt Q8TDD5); experiment: Fluorescence counterscreen assay for […] agonists: dose response cell-based high-throughput screening assay to identify agonists of the transient receptor potential channel ML3 (TRPML3). [Related pubchem assays: 1424, 1448 ]; type: functional
# T4 sequence (Q8TDD5 whole entry): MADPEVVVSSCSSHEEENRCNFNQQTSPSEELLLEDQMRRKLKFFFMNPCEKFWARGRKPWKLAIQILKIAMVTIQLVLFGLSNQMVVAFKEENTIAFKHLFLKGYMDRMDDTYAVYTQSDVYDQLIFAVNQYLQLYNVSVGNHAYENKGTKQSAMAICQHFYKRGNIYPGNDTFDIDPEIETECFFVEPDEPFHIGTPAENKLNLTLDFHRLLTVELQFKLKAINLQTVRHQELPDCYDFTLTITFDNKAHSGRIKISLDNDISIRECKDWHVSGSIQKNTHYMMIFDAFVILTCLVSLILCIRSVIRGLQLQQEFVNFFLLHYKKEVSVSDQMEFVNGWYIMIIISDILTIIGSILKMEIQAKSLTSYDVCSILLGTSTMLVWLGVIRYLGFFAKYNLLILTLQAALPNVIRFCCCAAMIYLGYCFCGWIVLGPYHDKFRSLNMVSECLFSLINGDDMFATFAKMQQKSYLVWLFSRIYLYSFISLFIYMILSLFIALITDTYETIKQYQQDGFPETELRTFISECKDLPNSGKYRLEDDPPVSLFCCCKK
# Ion channel NompC = Ion channel NompC (Danio rerio, UniProt Q7T1G6); experiment: Dose response cell-based high-throughput screening assay for agonists of the transient receptor potential channel N1 (TRPN1). [Related pubchem assays (depositor defined):AID1424, AID1448]; type: functional
# [19] = biological target: T5, Short transient receptor potential channel 4 (Mus musculus, UniProt Q9QUQ5); experiment: TRPC4 positive allosteric modulators, dose response, cell-based, HEK293 TRPC4/mu-opioid, Fluo-4 calcium, EC20 DAMGO (AID 434941); type: functional
# T5 sequence (Q9QUQ5 whole entry): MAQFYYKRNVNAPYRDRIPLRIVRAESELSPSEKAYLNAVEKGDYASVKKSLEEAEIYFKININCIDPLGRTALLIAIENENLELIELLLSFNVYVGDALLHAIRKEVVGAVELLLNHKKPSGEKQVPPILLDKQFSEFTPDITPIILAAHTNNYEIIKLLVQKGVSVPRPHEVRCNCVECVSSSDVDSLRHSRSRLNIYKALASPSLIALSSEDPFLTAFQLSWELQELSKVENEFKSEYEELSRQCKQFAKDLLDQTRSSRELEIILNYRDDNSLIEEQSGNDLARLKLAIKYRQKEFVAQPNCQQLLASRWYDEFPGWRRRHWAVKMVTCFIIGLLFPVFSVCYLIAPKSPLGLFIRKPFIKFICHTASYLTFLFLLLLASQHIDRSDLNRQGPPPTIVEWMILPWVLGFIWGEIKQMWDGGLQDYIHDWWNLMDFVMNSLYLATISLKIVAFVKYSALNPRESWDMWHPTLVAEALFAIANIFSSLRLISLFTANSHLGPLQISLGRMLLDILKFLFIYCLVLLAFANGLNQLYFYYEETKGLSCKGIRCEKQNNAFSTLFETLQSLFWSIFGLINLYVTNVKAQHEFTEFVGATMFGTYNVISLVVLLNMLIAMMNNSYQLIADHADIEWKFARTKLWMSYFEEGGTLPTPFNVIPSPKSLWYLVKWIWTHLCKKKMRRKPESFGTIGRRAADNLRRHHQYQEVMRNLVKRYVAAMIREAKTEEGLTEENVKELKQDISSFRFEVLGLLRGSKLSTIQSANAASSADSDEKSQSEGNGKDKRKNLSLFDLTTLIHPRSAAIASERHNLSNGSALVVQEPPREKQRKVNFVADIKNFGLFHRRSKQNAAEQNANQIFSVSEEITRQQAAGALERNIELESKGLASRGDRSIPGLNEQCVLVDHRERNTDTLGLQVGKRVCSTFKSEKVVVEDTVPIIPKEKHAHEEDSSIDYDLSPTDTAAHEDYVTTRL
# [20] = biological target: NACHT, LRR and PYD domains-containing protein 3 (Homo sapiens, UniProt Q96P20); experiment: NALP3 inhibitors in yeast, dose response, luminescent (AID 488799); type: functional
# H4 = experiment: Luminescence Cell-Based Dose Response HTS to Identify Activators of 5'UTR Stem-Loop Driven Prion Protein mRNA Translation in H4 Neuroglioblastoma Cells. [Related pubchem assays: 1829 (Project Summary), 1814 (Primary HTS)]; type: functional; conditions: Homo sapiens
# [21] = Luminescence Cell-Based Dose Response HTS to Identify Activators of Luciferase Translation or Activity in H4 […] Cells. [Related pubchem assays: 1829 (Project Summary), 1814 (Primary HTS)]; type: functional
# Troponin, cardiac muscle = Troponin, cardiac muscle (Homo sapiens, UniProt P19429+P45379+P63316); experiment: Fluorescence-based biochemical high throughput dose response assay for activators of the calcium sensitivity of cardiac Regulated Thin Filaments (RTF). [Related pubchem assays (depositor defined):AID493008, AID493018, AID504382, AID504383]; type: protein-complex assay
compound,measurement,setting,value
Cc1ccc(-n2cc3c(-c4ccc(Cl)cc4)nnc(C)c3n2)cc1,IC50,[1],> 32 µM (inactive)
same,EC50,[2],> 32 µM (inactive)
same,IC50,Cannabinoid receptor 2 [3],29.8 µM (inactive)
same,EC50,Cannabinoid receptor 2 [4],> 32 µM (inactive)
same,EC50,Cannabinoid receptor 1 [5],> 32 µM (inactive)
same,IC50,Cannabinoid receptor 1 [6],0.87 µM (active)
same,IC50,[7],6.13 µM (active)
O=C(/C(=C/c1cccc(Cl)c1)c1nc2ccccc2[nH]1)c1ccccc1,EC50,[8],> 20 µM (inactive)
same,EC50,HEK293 [9],> 20 µM (inactive)
same,IC50,HEK293 [10],13.4 µM (active)
same,EC50,[11],3.7 µM (active)
same,EC50,[12],8.48 µM (active)
same,AC50,INS1,4.22 µM (active)
same,AC50,[13],1.97 µM (active)
same,IC50,HEK293 [14],1.63 µM (active)
same,EC50,[15],0.755 µM (active)
same,IC50,HEK293 [16],3.14 µM (active)
same,IC50,HEK293 [17],> 20 µM (inactive)
same,EC50,[18],3.93 µM (active)
O=c1oc2c3c4c(cc2c(C(F)(F)F)c1CCN1CCOCC1)CCCN4CCC3,EC50,Mucolipin-3,4.56 µM (active)
same,EC50,Ion channel NompC,> 3.32 µM (inactive)
O=C(Nc1cccc(Cl)c1)c1cnn2cccnc12,EC50,[19],1.68 µM (active)
same,IC50,[20],8.19 µM (active)
same,EC50,H4,19.1 µM (active)
same,EC50,[21],3 µM (active)
C=CCN1C(=O)/C(=C/c2ccc(N3CCOCC3)o2)C(=O)NC1=S,EC50,"Troponin, cardiac muscle",5.95 µM (active)
